IC50 data for 31 compounds are collected here from US10335399B2, “Chromane, isochromane and dihydroisobenzofuran derivatives as mGluR2—negative allosteric modulators, compositions, and their use” (Merck Sharp & Dohme Corp., priority 2016, dated 2019).

SMILES strings stand for the structures. Where only a bound is given, the exact number is not on record here.

recombinant human mGluR2, sequence (Q14416 19-872): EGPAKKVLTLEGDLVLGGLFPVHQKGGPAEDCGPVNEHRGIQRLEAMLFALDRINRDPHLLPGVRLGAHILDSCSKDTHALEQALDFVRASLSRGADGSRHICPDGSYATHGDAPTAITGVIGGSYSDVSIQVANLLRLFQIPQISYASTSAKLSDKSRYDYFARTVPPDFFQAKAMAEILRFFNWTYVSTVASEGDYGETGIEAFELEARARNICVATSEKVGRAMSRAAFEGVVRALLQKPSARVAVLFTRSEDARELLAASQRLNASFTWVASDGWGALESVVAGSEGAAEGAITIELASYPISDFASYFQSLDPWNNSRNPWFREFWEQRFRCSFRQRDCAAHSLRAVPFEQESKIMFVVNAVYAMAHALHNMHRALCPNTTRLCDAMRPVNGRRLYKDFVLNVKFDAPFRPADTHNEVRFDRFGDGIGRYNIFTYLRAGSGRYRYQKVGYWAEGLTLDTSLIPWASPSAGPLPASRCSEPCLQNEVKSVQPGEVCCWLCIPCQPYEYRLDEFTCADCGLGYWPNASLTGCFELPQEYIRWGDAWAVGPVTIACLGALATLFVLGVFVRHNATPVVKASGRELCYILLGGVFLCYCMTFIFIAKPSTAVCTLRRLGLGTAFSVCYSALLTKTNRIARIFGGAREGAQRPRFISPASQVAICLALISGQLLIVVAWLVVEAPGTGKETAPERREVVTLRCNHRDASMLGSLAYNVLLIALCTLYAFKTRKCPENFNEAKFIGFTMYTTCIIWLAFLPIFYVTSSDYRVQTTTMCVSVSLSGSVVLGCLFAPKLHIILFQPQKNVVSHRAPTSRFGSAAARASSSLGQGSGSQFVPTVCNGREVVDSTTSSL

The test has as its target recombinant human mGluR2 (Homo sapiens (Human), UniProt Q14416). Kind of test: FLIPR Ca2+ mobilization assay: inhibition of glutamate-dependent mGluR2 activity. It counts as cell-based. The following applies: CHO dhfr- cells stably expressing recombinant human mGluR2 and Gα16, Fluo-4 AM, FLIPR384; inhibition of response to 2,500 nM glutamate. How it is done: Inhibition constants (IC50s; the concentration of compound required to provide 50% of maximal activity) are determined as follows. The compounds of the invention were tested in a fluorescence laser imaging plate reader based assay. This assay is a common functional assay to monitor Ca^2+ mobilization in whole cells expressing recombinant receptor coupled with a promiscuous G-protein. CHO (Chinese hamster ovary) dhfr− cells stably expressing recombinant human mGluR2 and Gα16 loaded with Fluo-4 AM (Invitrogen, Carlsbad Calif., USA) were treated with various concentrations of each of the tested compounds of the invention and the Ca^2+ response was monitored on a FLIPR384 instrument (Molecular Devices, Sunnydale Calif., USA). […] The maximum calcium response at each concentration of compound for agonist or antagonist were plotted as dose responses and the curves were fitted with a four parameter logistic equation giving IC50 and Hill coefficient using the iterative non-linear curve fitting software ADA (Merck & Co., Inc.). Data in the following table lists the activity of each compound to inhibit glutamate-dependent mGluR2 activity in this cellular assay.
For `NC(=O)c1cc(-c2ccc(F)cc2F)c2c(n1)O[C@@H](CNCC(F)(F)F)CC2` (single isomer, unassigned) [Example 4-2B], the IC50 worked out at 28 nM.

As for `CC(C)[C@@H]1CCc2c(-c3ccc(F)cc3F)cc(C(N)=O)nc2O1` (single isomer, unassigned) [Example 2-4A], the IC50 turned out to be 20 nM.

Regarding `NC(=O)c1cc(-c2ncc(Cl)cc2F)c2c(n1)[C@H]1CC[C@@H](C2)O1` (single isomer, unassigned) [Example 1-7A], the IC50 is > 3000 nM.

Consider `CN(C[C@@H]1CCc2c(-c3ccc(F)cc3F)cc(C(N)=O)nc2O1)CC(F)(F)F` (single isomer, unassigned) [Example 4-1A], for which the IC50 amounted to 25 nM.

On to `C[C@@H]1Cc2c(-c3ccc(F)cc3F)cc(C(N)=O)nc2O[C@@H]1CO` [Example 2-2A, (2S,3R)-5-(2,4-difluorophenyl)-2-(hydroxymethyl)-3-methyl-3,4-dihydro-2H-pyrano[2,3-b]pyridine-7-carboxamide], for which the IC50 is 195 nM.

With `NC(=O)c1cc(-c2cnn(C(F)F)c2)c2c(n1)OC(COC(F)F)CC2` (single isomer, unassigned) [Example 3-4B, (R)- or (S)-2-((difluoro-methoxy)methyl)-5-(1-(difluoromethyl)-1H-pyrazol-4-yl)-3,4-dihydro-2H-pyrano[2,3-b]pyridine-7-carboxamide], the IC50 came out at 1490 nM.

As for `NC(=O)c1cc(-c2ccc(F)cc2F)c2c(n1)O[C@@H](CO)CC2` (single isomer, unassigned) [Example 2-1B], the IC50 amounted to 179 nM.

As for `NC(=O)c1cc(-c2ccc(F)cc2F)c2c(n1)[C@H]1CC[C@@H]2O1` (single isomer, unassigned) [Example 5-1A], the IC50 amounted to 159 nM.

As for `NC(=O)c1cc(-c2ncc(Cl)cc2F)c2c(n1)[C@@H]1CC[C@H](C2)O1` (single isomer, unassigned) [Example 1-7B], the IC50 turned out to be 172 nM.

`NC(=O)c1cc(-c2ccc(F)cc2F)c2c(n1)COCC2` [Example 1-1, 4-(2,4-difluorophenyl)-5,8-dihydro-6H-pyrano[3,4-b]pyridine-2-carboxamide]: the IC50 stood at 277 nM.

As for `NC(=O)c1cc(-c2ccc(F)cc2F)c2c(n1)O[C@H](CO)CC2` [Example 2-1A, (S)-5-(2,4-difluorophenyl)-2-(hydroxmethyl)-3,4-dihydro-2H-pyrano[2,3-b]pyridine-7-carboxamide], the IC50 stood at 38 nM.

`NC(=O)c1cc(-c2ccc(F)cc2)c2c(n1)OC(COC(F)F)CC2` (single isomer, unassigned) [Example 3-2B, (R)- or (S)-2-((difluoro-methoxy)methyl)-5-(4-fluorophenyl)-3,4-dihydro-2H-pyrano[2,3-b]pyridine-7-carboxamide]: the IC50 came out at 86 nM.

Regarding `C[C@H]1CCc2c(-c3ccc(F)cc3F)cc(C(N)=O)nc2O1` (single isomer, unassigned) [Example 2-6B], the IC50 worked out at 26 nM.

For `NC(=O)c1cc(-c2cnn(C(F)F)c2)c2c(n1)OC(COC(F)F)CC2` (single isomer, unassigned) [Example 3-4A, (S)- or (R)-2-((difluoro-methoxy)methyl)-5-(1-(difluoromethyl)-1H-pyrazol-4-yl)-3,4-dihydro-2H-pyrano[2,3-b]pyridine-7-carboxamide], the half-inhibitory concentration (IC50) was determined as 274 nM.

Consider `NC(=O)c1cc(-c2ccc(F)cc2F)c2c(n1)[C@@H]1CC[C@H](C2)O1` (single isomer, unassigned) [Example 1-2B], for which the IC50 was 21 nM.

As for `NC(=O)c1cc(-c2ccc(F)cc2F)c2c(n1)O[C@@H](CC(F)(F)F)CC2` (single isomer, unassigned) [Example 3-8B], the IC50 was determined as 24 nM.

As for `C[C@@H]1Cc2c(-c3ccc(F)cc3F)cc(C(N)=O)nc2O[C@H]1COC(F)F` [Example 3-9C, (2R,3R)-2-((difluoromethoxy)methyl)-5-(2,4-difluoropheny)-3-methyl-3,4-dihydro-2H-pyrano[2,3-b]pyridine-7-carboxamide], the IC50 is 15 nM.

For `C[C@]1(COC(F)F)CCc2c(-c3ccc(F)cc3F)cc(C(N)=O)nc2O1` (single isomer, unassigned) [Example 2-8B], the IC50 is 14 nM.

`NC(=O)c1cc(-c2ccc(F)cc2F)c2c(n1)O[C@H](CC(F)(F)F)CC2` (single isomer, unassigned) [Example 3-8A]: the IC50 worked out at 12 nM.

Turning to `C[C@@H]1Cc2c(-c3ccc(F)cc3F)cc(C(N)=O)nc2O[C@@H]1COC(F)F` (single isomer, unassigned) [Example 3-9A], the IC50 was 7 nM.

On to `NC(=O)c1cc(-c2ccc(F)cc2F)c2c(n1)O[C@H](CF)CC2` (single isomer, unassigned) [Example 3-6A], for which the IC50 came out at 52 nM.

On to `NC(=O)c1cc(-c2ccc(F)cc2F)c2c(n1)O[C@H](CNCC(F)(F)F)CC2` [Example 4-2A, (S)-5-(2,4-difluoropheny)-2-(((2,2,2-trifluoroethyl)amino)methyl)-3,4-dihydro-2H-pyrano[2,3-b]pyridine-7-carboxamide], for which the IC50 worked out at 21 nM.

With `NC(=O)c1cc(-c2ccc(F)cc2F)c2c(n1)O[C@H](COC(F)F)CC2` [Example 3-1B, (S)-2-((difluoromethoxy)methyl)-5-(2,4-difluorophenyl)-3,4-dihydro-2H-pyrano[2,3-b]pyridine-7-carboxamide], the IC50 was determined as 19 nM.

For the compound `C[C@@H](OC(F)F)[C@@H]1CCc2c(-c3ccc(F)cc3F)cc(C(N)=O)nc2O1` [Example 2-9B, (S)-2-((R)-1-(difluoromethoxy)ethyl)-5-(2,4-difluorophenyl)-3,4-dihydro-2H-pyrano[2,3-b]pyridine-7-carboxamide], the IC50 worked out at 114 nM.

As to `C[C@@H]1CCc2c(-c3ccc(F)cc3F)cc(C(N)=O)nc2O1` (single isomer, unassigned) [Example 2-6A], the IC50 came to 10 nM.

As to `C[C@H]1Cc2c(-c3ccc(F)cc3F)cc(C(N)=O)nc2O[C@@H]1COC(F)F` (single isomer, unassigned) [Example 3-9B], the IC50 stood at 19 nM.

Take `CC(C)[C@H]1CCc2c(-c3ccc(F)cc3F)cc(C(N)=O)nc2O1` (single isomer, unassigned) [Example 2-4B]: the IC50 turned out to be 69 nM.

Consider `NC(=O)c1cc(-c2ccc(F)cc2F)c2c(n1)O[C@@H](C(F)F)CC2` [Example 3-7A, (R)-2-(difluoromethyl)-5-(2,4-difluorophenyl)-3,4-dihydro-2H-pyrano[2,3-b]pyridine-7-carboxamide], for which the IC50 was 18 nM.

In the case of `C[C@@H]1Cc2c(-c3ccc(F)cc3F)cc(C(N)=O)nc2O[C@H]1CO` [Example 2-2C, (2R,3R)-5-(2,4-difluorophenyl)-2-(hydroxymethyl)-3-methyl-3,4-dihydro-2H-pyrano[2,3-b]pyridine-7-carboxamide], the IC50 was determined as 35 nM.

Regarding `C[C@H]1Cc2c(-c3ccc(F)cc3F)cc(C(N)=O)nc2O[C@@H]1CO` [Example 2-2B, (2S,3S)-5-(2,4-difluorophenyl)-2-(hydroxymethyl)-3-methyl-3,4-dihydro-2H-pyrano[2,3-b]pyridine-7-carboxamide], the IC50 is 15 nM.

For the compound `CC1(C)CCc2c(-c3ccc(F)cc3F)cc(C(N)=O)nc2O1` [Example 2-5, 5-(2,4-difluorophenyl)-2,2-dimethyl-3,4-dihydro-2H-pyrano[2,3-b]pyridine-7-carboxamide], the IC50 came to 6 nM.

Usually IC50 stands for the midpoint of a concentration-inhibition curve.
